The source of these data is paper PMC6767236, “Selective Cannabinoid 2 Receptor Agonists as Potential Therapeutic Drugs for the Treatment of Endotoxin-Induced Uveitis” (Molecules, 2019).

The target of one series is T1, human CB1R (Homo sapiens, UniProt P21554).
T1 construct: host or cells: CHO
In words: cAMP assay, CHO cells expressing human CB1R. Type of series: cell-based. To be noted: read-out: hCB1R: cAMP EC50. How it is done:
The effect of ligands on the forskolin-stimulated accumulation of cAMP was determined using the LANCE ULTRA cAMP kit as per the manufacturer’s instruction (Perkin-Elmer Life Sciences, Boston, MA, USA).
For human CB2R and CB1R, cAMP assays were performed using CHO cells stably expressing human CB2R or human CB1R (DiscoveRx, Fremont, CA, USA) using a cAMP-Nano-TRF detection kit (Roche Diagnostics, Penzberg, Germany). Cells were seeded 17–24 h prior to the experiment at a density of 3 × 10^4 cells per well in a black 96-well plate with clear flat bottom (Corning, Wiesbaden, Germany) and incubated in 5% CO2 at 37 °C in a humidified incubator. The growth medium was exchanged with Krebs Ringer bicarbonate buffer with 1 mmol/L 3-isobutyl-1-methylxanthine (IBMX), 0.1% fatty acid-free BSA and incubated at 30 °C for 60 min. Agonist was added to a final assay volume of 100 μL and the mixture was incubated for 30 min at 30 °C. The assay was stopped by the addition of 50 μL 3 × lysis reagent and shaken for 2 h at room temperature. The time-resolved fluorescence energy transfer was measured using an LF502 Nanoscan FLT (IOM, Berlin, Germany), equipped with a laser as excitation source. cAMP content was determined from the function of a standard curve spanning from 10 to 0.13 nmol/L cAMP. Efficacies are expressed as percent relative to 1 µM CP55940.

On the set-up of series [1]: method as in earlier work. The note with it: * previously published, cited from earlier work.
Series [2] in a line: Plasma protein binding (equilibrium dialysis), mouse plasma. The format is in vitro ADME. The note with it: C57, pH 7.4, read-out: Plasma Protein Binding: FREE Fraction mouse. How it is done: Pooled and frozen plasma from selected species were obtained from commercial suppliers […]
(human […] and mouse […]3-C57; BioreclamationIV, NY, USA). Teflon […]
equilibrium dialysis plates (96-well, 150 μL, half-cell capacity) and cellulose membranes (12–14 kDa molecular weight cut-off) were purchased from HT-Dialysis (Gales Ferry, Connecticut). Both biological matrix and phosphate buffer pH were adjusted to 7.4 on the day of the experiment. The reference substance was diazepam.
The determination of unbound compound was performed using a 96-well format equilibrium dialysis device with a molecular weight cut-off membrane of 12 to 14 kDa. […]
At equilibrium, the unbound drug concentration in the biological matrix compartment of the equilibrium dialysis apparatus is the same as the concentration of the compound in the buffer compartment. Thus, the percent unbound fraction was be calculated by determining the compound concentrations in the buffer and matrix compartments after dialysis as follows: % fraction unbound = 100 × buffer concentration after dialysis/matrix concentration after dialysis. […]
P-glycoprotein (permeability-glycoprotein (P-gp), also known as multidrug resistance protein 1) is the most studied and best characterized drug transporter. […] The effect of P-gp was measured by expressing the efflux ratio of the unidirectional A > B and B > A Papp values. […]

T1 sequence (P21554 whole entry): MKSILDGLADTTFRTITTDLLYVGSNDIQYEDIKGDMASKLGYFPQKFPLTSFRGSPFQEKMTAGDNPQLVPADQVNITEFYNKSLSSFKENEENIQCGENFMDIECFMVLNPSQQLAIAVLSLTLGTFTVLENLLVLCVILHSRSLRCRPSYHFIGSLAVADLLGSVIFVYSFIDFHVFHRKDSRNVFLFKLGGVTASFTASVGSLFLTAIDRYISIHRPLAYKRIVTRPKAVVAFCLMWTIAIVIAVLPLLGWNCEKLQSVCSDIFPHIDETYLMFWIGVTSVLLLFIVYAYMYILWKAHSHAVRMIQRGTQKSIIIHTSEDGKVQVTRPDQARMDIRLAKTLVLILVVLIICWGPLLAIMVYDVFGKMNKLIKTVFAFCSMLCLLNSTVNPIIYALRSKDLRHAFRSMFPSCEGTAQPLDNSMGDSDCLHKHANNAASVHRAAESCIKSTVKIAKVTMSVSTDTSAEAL

With `CNC(=O)[C@@H](NC(=O)c1cc(OCC2(C)COC2)c(C2CC2)cn1)C(C)(C)C` [RO6851228, 5-Cyclopropyl-N-[(2S)-3,3-dimethyl-1-(methylamino)-1-oxobutan-2-yl]-4-[(3-methyloxetan-3-yl)methoxy]pyridine-2-carboxamide], the EC50 on human CB1R was > 10 µM.

On to `CC(C)(C)c1nc(N2CC[C@H](O)C2)c2nnn(Cc3nnnn3C3CC3)c2n1` [RO6871304, (3S)-1-{5-tert-butyl-3-[(1-cyclopropyl-1H-tetrazol-5-yl)methyl]-3H-[1,2, 3]triazolo[4,5-d]pyrimidin-7-yl}pyrrolidin-3-ol], for which the “Thermodynamic Solubility in FaSSIF (pH 6.5)” value in series [1] (FaSSIF pH 6.5) is 80 μg/mL. In addition, the “Thermodynamic Solubility in FeSSIF (pH 5.5)” value in series [1] (FeSSIF pH 5.5) is given as 273 μg/mL. Besides, the “Thermodynamic Solubility in Aqueous Buffer (pH 6.5)” value in series [1] (aqueous phosphate buffer pH 6.5) was 56 μg/mL. Further, the fraction unbound at 5 h, 1000 nM in series [2] was found to be 0.031.
